From the NIST ThermoML archive (doi:10.1007/s10765-007-0241-8)

Settings: Liquid; for thermal conductivity: Hot wire method; for mass density: Constant-volume piezometry

CCCCn1cc[n+](C)c1.F[P-](F)(F)(F)(F)F [1-butyl-3-methylimidazolium hexafluorophosphate]
Settings	mass density, 100 kPa [kg/m3]	mass density, 10000 kPa [kg/m3]	mass density, 20000 kPa [kg/m3]	thermal conductivity, 0.1 kPa [W/m/K]	thermal conductivity, 10 kPa [W/m/K]	thermal conductivity, 20 kPa [W/m/K]
294.9 K	1369	1373	1378	0.145	0.146	0.148
315 K	1352	1357	1362	0.145	0.146	0.147
335.1 K	1336	1341	1347	0.144	0.145	0.147

CCCCCCn1cc[n+](C)c1.F[P-](F)(F)(F)(F)F [1-hexyl-3-methylimidazolium hexafluorophosphate]
Settings	mass density, 294.1 K [kg/m3]	mass density, 315.1 K [kg/m3]	mass density, 335.2 K [kg/m3]	thermal conductivity, 294.1 K [W/m/K]	thermal conductivity, 315.1 K [W/m/K]	thermal conductivity, 335.2 K [W/m/K]
100 kPa	1294	1278	1262	0.145	0.145	0.144
10000 kPa	1300	1284	1268	0.147	0.146	0.146
20000 kPa	1306	1290	1274	0.148	0.148	0.147

CCCCCCCC[n+]1ccn(C)c1.F[P-](F)(F)(F)(F)F [1-octyl-3-methylimidazolium hexafluorophosphate]
Settings	mass density, 295.1 K [kg/m3]	mass density, 315.1 K [kg/m3]	mass density, 335.2 K [kg/m3]	thermal conductivity, 295.1 K [W/m/K]	thermal conductivity, 315.1 K [W/m/K]	thermal conductivity, 335.2 K [W/m/K]
100 kPa	1236	1222	1207	0.145	0.145	0.144
10000 kPa	1243	1228	1213	0.147	0.146	0.146
20000 kPa	1249	1234	1219	0.147	0.147	0.147

CCCCCCCC [octane]
100 kPa
Settings	thermal conductivity [W/m/K]
294.5 K	0.126
314.7 K	0.121
334.8 K	0.115

Cc1ccccc1 [toluene]
thermal conductivity [W/m/K]
Settings	294.2 K	314.1 K	334.4 K
100 kPa	0.132	0.127	0.122
10000 kPa	0.136	0.131	0.126
20000 kPa	0.139	0.135	0.129
